Where a SMILES comes first, the peptide text is derived from it. Where no end group is shown, it is not given here. [ ]: non-standard residue; d: D form.

The subject of the first assay is MCF-7 cells. It counts as cell-based.
Conditions: not given
The text has this: These peptides were compared to full length LPA-1 with respect to their abilities to inhibit leptin-induced cell growth. […] The same approach was employed with LPA-2 creating […] of the leptin molecule). […] Another LPA-2 scrambled peptide that may be used is […] NO: 3]. […] Retro-inverso peptides are peptides constructed with the reverse sequence and containing all D-amino acids. […] Retro-inverso LPA-1(24-6) sequence […] NO: 31] and retro-inverso LPA-2(89-72) […] NO: 32]. […] Studies were carried out using both MCF-7 and HT-29 cells. […] MCF-7 and HT-29 cells were cultured in DMEM-F12 medium containing 5% fetal bovine serum (FBS), 5 μg/ml insulin, 1% amphopthericin B, 100 μg/ml streptomycin and 100 U/ml penicillin until they were 80% confluent. The cells were washed twice with 100 mM phosphate saline buffer (PBS), pH 7.2 and cultured for additional 2 days in the same medium but without FBS (basal medium). Cells were washed as described before and cultured in basal medium containing the leptin peptides of the present invention or controls as described above.
Take `CC[C@@H](C)[C@@H](N)C(=O)N[C@H](CC(=O)O)C(=O)N[C@H](CC(N)=O)C(=O)N[C@@H](C(=O)N[C@H](CCCNC(=N)N)C(=O)N[C@@H](C(=O)N[C@@H](C(=O)N[C@@H](C(=O)N[C@@H](C(=O)N[C@H](CCCCN)C(=O)N[C@@H](C(=O)N[C@H](CC(C)C)C(=O)N[C@@H](C(=O)N[C@H](CCCCN)C(=O)N[C@@H](C(=O)N[C@H](CC(=O)O)C(=O)N[C@H](CC(=O)O)C(=O)N[C@H](CCC(N)=O)C(=O)N[C@@H](C(N)=O)C(C)C)[C@H](C)O)[C@H](C)O)[C@H](C)CC)[C@H](C)O)[C@H](C)CC)C(C)C)[C@H](C)O)[C@H](C)CC` [D-T10(1), IDNIRTVITKILTKTDDQV] (H-[dI][dD][dN][dI][dR][dT][dV][dI][dT][dK][dI][dL][dT][dK][dT][dD][dD][dQ][dV]-NH2): the midpoint of inhibition, the IC50, lay at 16.9 nM.
As to NVIQISNILENLRDLLHV-NH2, the IC50 (in general, the concentration that gives 50% inhibition) was 16 nM.
The same measure, in the same setting: to VQDDVKTLIKTIVTRINDI-NH2 belongs 20.7 nM.
With `CC[C@@H](C)[C@@H](NC(=O)[C@@H](CO)NC(=O)[C@@H](CC(N)=O)NC(=O)[C@@H](CC(=O)O)NC(=O)[C@@H](CC(C)C)NC(=O)[C@@H](CCC(=O)O)NC(=O)[C@@H](CC(N)=O)NC(=O)[C@@H](CC(C)C)NC(=O)[C@@H](CCCNC(=N)N)NC(=O)[C@@H](CC(=O)O)NC(=O)[C@@H](CC(C)C)NC(=O)[C@@H](CC(C)C)NC(=O)[C@@H](Cc1c[nH]cn1)NC(=O)[C@H](N)C(C)C)C(=O)N[C@H](CCC(N)=O)C(=O)N[C@@H](C(=O)N[C@@H](C(=O)N[C@H](CC(N)=O)C(N)=O)C(C)C)[C@H](C)CC` [D-D79(1), VHLLDRLNELDNSIQIVN] (H-[dV][dH][dL][dL][dD][dR][dL][dN][dE][dL][dD][dN][dS][dI][dQ][dI][dV][dN]-NH2), half-maximal inhibition (IC50) was put at 19.4 nM.
Turning to “VQDDTKTLIKTIVTRINDI-NH2 [T10 (original amino acid)]”, the IC50 came to 25.7 nM.
For `CC[C@@H](C)[C@@H](NC(=O)[C@@H](CO)NC(=O)[C@@H](CC(N)=O)NC(=O)[C@@H](CC(C)C)NC(=O)[C@@H](CC(C)C)NC(=O)[C@@H](CCC(=O)O)NC(=O)[C@@H](CC(N)=O)NC(=O)[C@@H](CC(C)C)NC(=O)[C@@H](CCCNC(=N)N)NC(=O)[C@@H](CC(=O)O)NC(=O)[C@@H](CC(C)C)NC(=O)[C@@H](CC(C)C)NC(=O)[C@@H](Cc1c[nH]cn1)NC(=O)[C@H](N)C(C)C)C(=O)N[C@H](CCC(N)=O)C(=O)N[C@@H](C(=O)N[C@@H](C(=O)N[C@H](CC(N)=O)C(N)=O)C(C)C)[C@H](C)CC` [D-L79] (H-[dV][dH][dL][dL][dD][dR][dL][dN][dE][dL][dL][dN][dS][dI][dQ][dI][dV][dN]-NH2), 18.7 nM corresponded to half-maximal inhibition (IC50).
On the same count and under the same terms, to `CC[C@@H](C)[C@@H](N)C(=O)N[C@H](CC(=O)O)C(=O)N[C@H](CC(N)=O)C(=O)N[C@@H](C(=O)N[C@H](CCCNC(=N)N)C(=O)N[C@@H](C(=O)N[C@@H](C(=O)N[C@@H](C(=O)N[C@@H](C(=O)N[C@H](CCCCN)C(=O)N[C@@H](C(=O)N[C@H](CC(C)C)C(=O)N[C@@H](C(=O)N[C@H](CCCCN)C(=O)N[C@H](CC(C)C)C(=O)N[C@H](CC(=O)O)C(=O)N[C@H](CC(=O)O)C(=O)N[C@H](CCC(N)=O)C(=O)N[C@@H](C(N)=O)C(C)C)[C@H](C)O)[C@H](C)CC)[C@H](C)O)[C@H](C)CC)C(C)C)[C@H](C)O)[C@H](C)CC` [D-L10] (H-[dI][dD][dN][dI][dR][dT][dV][dI][dT][dK][dI][dL][dT][dK][dL][dD][dD][dQ][dV]-NH2) belongs 11.8 nM.
In turn, NVIQISNLLENLRDLLHV-NH2 displayed an IC50 of 16 nM.

The same assay, now with this note: Table 1; L-amino acid peptides; cell line not named in Table 1 (same values in Table 2 are for MCF-7); read-out: IC50 values.
For “SRNVIQISNDLENLRDLLHVLAFSKS-NH2 [Full-length LPA-2 (70-95), reference compound]”, the IC50 was found to be 33 nM.
As for “IQKVQDDTKTLIKTIVTRINDISHTQSVSSKQ-NH2 [Full-length LPA-1 (3-34), reference compound]”, the IC50 is 39.1 nM.

The assay is the same for the next values; noted with them: Table 2; MCF-7 cells; read-out: IC50 values.
Turning to “SRNVIQISNDLENLRDLLHVLAFSKS-NH2 [Full-length LPA-2 (70-95), reference compound]”, the IC50 stood at 33 nM.
For the molecule “IQKVQDDTKTLIKTIVTRINDISHTQSVSSKQ-NH2 [Full-length LPA-1 (3-34), reference compound]”, the IC50 came out at 39.1 nM.

For the origin of these results see US20120245104A1, “NOVEL RETRO-INVERSO LEPTIN PEPTIDE ANTAGONISTS” (priority 2011, published 2012).
